Measurements as given in PMC5712521, “Dendrogenin A drives LXR to trigger lethal autophagy in cancers” (Nature Communications, 2017).

What was measured:
KG1 cells = experiment: qRT-PCR of Nur77 and NOR1; assay type: cell-based, human; details: KG1, 24 h; 5 µM DDA, 2 µM TO, 2 µM GW, 10 µM 22(R)HC
Procedure: (§1) Total RNA was extracted from tumor cells or MEFs using an RNA Extraction kit (Qiagen) or Trizol (Invitrogen), respectively, and was quantified with NanoDrop. Complementary DNA (cDNA) synthesis was performed with 1 μg RNA iScript Reverse Transcriptase (Bio-Rad). 25 ng cDNA was amplified using SyBR Supermix (Bio-Rad). RNA expression of the different genes of interest (Supplementary Tables 1, 2) were determined using the ΔΔCT method, where the difference in the threshold cycle (ΔCT) values of the target gene and the housekeeping gene for each sample was normalized to the ΔCT value of the untreated sample.
(§2) Supplementary Fig. 6. […]
(§3) D ata are expressed relative to the control (solvent vehic le). D ata from b, f, g, h, j, p, q ar e the m eans ± S.E.M. of 3 independent experiments performed in triplicate (*P<0.05, **P<0.01, ***P<0.001, t test). Images are representative of 3 independent experim ents.

HL60 cells = experiment: qRT-PCR of Nur77 and NOR1; assay type: cell-based, human; details: HL60, 24 h; 5 µM DDA, 2 µM TO, 2 µM GW, 10 µM 22(R)HC
Procedure: as §1, §2, §3

B16F10 cells [1] = experiment: RT-qPCR of LXR-responsive genes; assay type: cell-based, mouse; details: 8 h, 2.5 µM DDA, 10 µM 22(R)HC, 1 µM GW, 100 nM TO, vs vehicle
Procedure: as §1
(§4) Supplementary Fig. 4. a R egulat ion of LXR-responsive genes b y D DA and other k nown LXR
(§5) ligands in B16F10 and SKMEL- 28 cells transfected with s iRN A targeting LXRβ ( siLXRβ) or
(§6) with contro l siRN A scram ble (siSC). Cells were treated for 8 h with either solvent vehicle, 2.5
(§7) µM DD A, 10 µM 22(R) hydrox ycholesterol (22(R)HC), 1 µM GW 3965 (GW ) or 100 nM
(§8) T O901317 (T O). […]

SKMEL-28 cells [2] = experiment: Sterol analysis by GC/MS; assay type: cell-based, human; details: SKMEL-28, 24 h; 10 µM 22(R)HC, 1 µM GW, 100 nM TO; GC/MS
Procedure: (§9) Sterols in cell homogenates were extracted with a solvent mixture containing chloroform/methanol 2/1 (v/v) spiked with epicoprostanol as the internal standard. Lipids were partitioned in chloroform after the addition of saline and saponified by methanolic potassium hydroxide (0.5 N, 60 °C, 15 min). The fatty acids released were methylated with BF3-methanol (12%, 60 °C, 15 min) to not interfere with the chromatography of sterols. The sterols were re-extracted in hexane and silylated, as described previously. The trimethylsilylether derivatives of the sterols were separated by gas chromatography (GC) (Hewlett–Packard 6890 series) in a medium polarity capillary column RTX-65, (65% diphenyl 35% dimethyl polysiloxane, length 30 m, diameter 0.32 mm, film thickness 0.25 μm (Restesk, Evry, France)). The mass spectrometer (Agilent 5975 inert XL) in series with the GC was set up for the detection of positive ions. Ions were produced in the electron impact mode at 70 eV. Sterols were identified by the fragmentogram in the scanning mode and quantified by selective monitoring of the specific ions after normalization with the internal standard epicoprostanol and calibration with weighed standards. […]
Quantification of sterols ac cum ulation in SKMEL- 2 8 c ells either expressing LXRβ (shCT L) or with LXRβ (sh3 or sh4LXR β) k nock ed down after 24 h treatm ent with 2.5 µ M DD A or solvent vehicle. Anal yses were perform ed by GC/MS. f Quantification of sterols accumulated in m elanom a cells after 24 h treatm ent with 10 µM 22(R) HC, 1 µ M GW , 100 nM T O or solvent […]
(§10) vehicle. […]

SKMEL-28 cells [3] = experiment: RT-qPCR of LXR-responsive genes; assay type: cell-based, human; details: 8 h, 2.5 µM DDA, 10 µM 22(R)HC, 1 µM GW, 100 nM TO, vs vehicle
Procedure: as §1, §4, §5, §6, §7, §8

B16F10 cells [4] = experiment: Sterol analysis by GC/MS; assay type: cell-based, mouse; details: B16F10, 24 h, 10 µM 22(R)HC, 1 µM GW, 100 nM TO
Procedure: as §9
Anal yses were perform ed by GC/MS. f Quantification of sterols accumulated in
m elanom a cells after 24 h treatm ent with 10 µM 22(R) HC, 1 µ M GW , 100 nM T O or solvent
as §10

SMILES: O=S(=O)(c1ccccc1)N(CC(F)(F)F)c1ccc(C(O)(C(F)(F)F)C(F)(F)F)cc1 [TO, TO901317]
- NOR1 mRNA levels (Fold over control) (KG1 cells): 1.1 fold
- Nur77 mRNA levels (Fold over control) (KG1 cells): 1.5 fold
- NOR1 mRNA levels (Fold over control) (HL60 cells): 2.7 fold
- Nur77 mRNA levels (Fold over control) (HL60 cells): 0.4 fold
- ABCA1 mRNA (B16F10 cells [1]; B16F10, siCT): 8.5±1.8 fold
- ABCG1 mRNA (B16F10 cells [1]; B16F10, siCT): 1.1±0.3 fold
- ABCG5 mRNA (B16F10 cells [1]; B16F10, siCT): 3.6±0.6 fold
- ABCG8 mRNA (B16F10 cells [1]; B16F10, siCT): 1.5±0.1 fold
- LC3A mRNA (B16F10 cells [1]; B16F10, siCT): 1.0±0.3 fold
- LC3B mRNA (B16F10 cells [1]; B16F10, siCT): 1.3±0.1 fold
- LDLR mRNA (B16F10 cells [1]; B16F10, siCT): 1.7±0.1 fold
- NOR1 mRNA (B16F10 cells [1]; B16F10, siCT): 1.9±0.2 fold
- Nur77 mRNA (B16F10 cells [1]; B16F10, siCT): 0.9±0.3 fold
- SCD1 mRNA (B16F10 cells [1]; B16F10, siCT): 1.6±0.2 fold
- SREBP1 mRNA (B16F10 cells [1]; B16F10, siCT): 3.3±0.1 fold
- SULT2b1b mRNA (B16F10 cells [1]; B16F10, siCT): 3.2±0.2 fold
- ABCA1 mRNA (B16F10 cells [1]; B16F10, siLXRβ): 2.0±0.4 fold
- ABCG1 mRNA (B16F10 cells [1]; B16F10, siLXRβ): 1.0±0.1 fold
- ABCG5 mRNA (B16F10 cells [1]; B16F10, siLXRβ): 1.0±0.2 fold
- ABCG8 mRNA (B16F10 cells [1]; B16F10, siLXRβ): 1.1±0.2 fold
- LC3A mRNA (B16F10 cells [1]; B16F10, siLXRβ): 1.0±0.2 fold
- LC3B mRNA (B16F10 cells [1]; B16F10, siLXRβ): 1.2±0.3 fold
- LDLR mRNA (B16F10 cells [1]; B16F10, siLXRβ): 1.0±0.2 fold
- NOR1 mRNA (B16F10 cells [1]; B16F10, siLXRβ): 0.7±0.3 fold
- Nur77 mRNA (B16F10 cells [1]; B16F10, siLXRβ): 0.6±0.2 fold
- SCD1 mRNA (B16F10 cells [1]; B16F10, siLXRβ): 0.9±0.1 fold
- SREBP1 mRNA (B16F10 cells [1]; B16F10, siLXRβ): 0.9±0.2 fold
- SULT2b1b mRNA (B16F10 cells [1]; B16F10, siLXRβ): 1.2±0.3 fold
- Sterol amount/total sterol: 8-DHC (SKMEL-28 cells [2]): 0.04± 0.02
- Sterol amount/total sterol: zymostenol (SKMEL-28 cells [2]): 0.36± 0.08
- ABCA1 mRNA (SKMEL-28 cells [3]; SKMEL-28, siCT): 4.2±1.2 fold
- ABCG1 mRNA (SKMEL-28 cells [3]; SKMEL-28, siCT): 2.8±0.5 fold
- ABCG5 mRNA (SKMEL-28 cells [3]; SKMEL-28, siCT): 3.1±0.5 fold
- ABCG8 mRNA (SKMEL-28 cells [3]; SKMEL-28, siCT): 1.5±0.1 fold
- LC3A mRNA (SKMEL-28 cells [3]; SKMEL-28, siCT): 0.8±0.1 fold
- LC3B mRNA (SKMEL-28 cells [3]; SKMEL-28, siCT): 0.9±0.2 fold
- LDLR mRNA (SKMEL-28 cells [3]; SKMEL-28, siCT): 1.0±0.2 fold
- NOR1 mRNA (SKMEL-28 cells [3]; SKMEL-28, siCT): 1.7±0.1 fold
- Nur77 mRNA (SKMEL-28 cells [3]; SKMEL-28, siCT): 1.1±0.2 fold
- SCD1 mRNA (SKMEL-28 cells [3]; SKMEL-28, siCT): 1.8±0.2 fold
- SREBP1 mRNA (SKMEL-28 cells [3]; SKMEL-28, siCT): 1.8±0.3 fold
- SULT2B1b mRNA (SKMEL-28 cells [3]; SKMEL-28, siCT): 1.8±0.2 fold
- ABCA1 mRNA (SKMEL-28 cells [3]; SKMEL-28, siLXRβ): 2.2±0.3 fold
- ABCG1 mRNA (SKMEL-28 cells [3]; SKMEL-28, siLXRβ): 1.1±0.2 fold
- ABCG5 mRNA (SKMEL-28 cells [3]; SKMEL-28, siLXRβ): 1.1±0.1 fold
- ABCG8 mRNA (SKMEL-28 cells [3]; SKMEL-28, siLXRβ): 0.8±0.1 fold
- LC3A mRNA (SKMEL-28 cells [3]; SKMEL-28, siLXRβ): 0.9±0.1 fold
- LC3B mRNA (SKMEL-28 cells [3]; SKMEL-28, siLXRβ): 0.9±0.1 fold
- LDLR mRNA (SKMEL-28 cells [3]; SKMEL-28, siLXRβ): 0.9±0.1 fold
- NOR1 mRNA (SKMEL-28 cells [3]; SKMEL-28, siLXRβ): 1.0±0.2 fold
- Nur77 mRNA (SKMEL-28 cells [3]; SKMEL-28, siLXRβ): 1.1±0.2 fold
- SCD1 mRNA (SKMEL-28 cells [3]; SKMEL-28, siLXRβ): 1.2±0.2 fold
- SREBP1 mRNA (SKMEL-28 cells [3]; SKMEL-28, siLXRβ): 1.3±0.2 fold
- SULT2B1b mRNA (SKMEL-28 cells [3]; SKMEL-28, siLXRβ): 1.3±0.2 fold
- Sterol amount/total sterol: 8-DHC (B16F10 cells [4]): 0.04± 0.005
- Sterol amount/total sterol: zymostenol (B16F10 cells [4]): 0.12± 0.09
